Measured values reported in publication PMC9501377, “New Diarylamine KV10.1 Inhibitors and Their Anticancer Potential” (Pharmaceutics, 2022).

Tests used:
[1] = tested on: Panc-1 cells; experiment: Cell growth by Incucyte confluence, Panc-1; type: cell-based, human; conditions: 48–72 h; for reduction of proliferation of Panc-1 cells: 25 µM
Description: (§1) MCF-7 (DSMZ ACC 115) and PANC-1 (DSMZ ACC 783) cells were grown as recommended by the cell supplier at 5% CO2 and 37 °C in a humidified atmosphere. For determining cell growth, cells were seeded in 96-well culture plates (Corning, Corning, NY, USA) at a density of 10^4 cells/well. After 24 h, the compounds were added diluted in medium. Six wells per condition were used. Four images of each well were collected at 1 h intervals for 48–72 h. Two biological replicates were performed. Images were acquired using an Incucyte device (Sartorius/Essen biosciences). Cell confluence was calculated using the Incucyte software on the phase contrast images. The results are expressed as percent confluence per well normalised to the value with no compounds added.

[2] = tested on: MCF-7 cells; experiment: Cell growth by Incucyte confluence, MCF-7; type: cell-based, human; conditions: 48–72 h; for reduction of proliferation of MCF-7 cells: 25 µM
Description: as §1

[3] = tested on: MCF-7 breast cancer cell line; experiment: MTS antiproliferative assay; type: cell-based; conditions: Homo sapiens, MCF7, 72 h
Description: The antiproliferative activities of the compounds were evaluated on the breast cancer cell line MCF-7 (ATCC HTB-22, adherent cells isolated from a person), using an MTS (Promega, Madison, WI, USA) assay according to the manufacturer’s instructions. The MCF-7 cell line was obtained from the American Type Culture Collection (ATCC, Manassas, VA, USA). Cells were cultured in low-glucose Dulbecco’s Modified Eagle’s Medium (DMEM) (Sigma-Aldrich, St. Louis, MO, USA), supplemented with 10% fetal bovine serum (Gibco, Thermo Fisher Scientific, Waltham, MA, USA), 100 U/mL penicillin (Sigma-Aldrich, St. Louis, MO, USA), 100 µg/mL streptomycin (Sigma-Aldrich, St. Louis, MO, USA), and 2 mM L-glutamine (Sigma-Aldrich, St. Louis, MO, USA). The cell line was incubated in a 5% CO2 atmosphere at 37 °C. Cells were plated out in 96-well plates at a density of 2000 cells per well and incubated overnight. The next day, cells were treated with the indicated compounds, positive control (17-DMAG), or vehicle control (0.5% DMSO) and incubated for 72 h. […] Absorbance was measured at 492 nm using a microplate reader (Synergy 4 Hybrid; BioTek, Winooski, VT, USA). […] Statistical significance (p < 0.05) was calculated using a two-tailed Welch’s t-test between treated groups and DMSO. IC50 values are given as averages of the independent measurements and were calculated using GraphPad Prism 8.0 software (San Diego, CA, USA). […]

[4] = concentrations higher than 25 µM

| Structure (SMILES) | reduction of proliferation of Panc-1 cells [1] | inhibition of growth of Panc-1 cells [1, 4] | reduction of proliferation of MCF-7 cells [2] | inhibition of growth of MCF-7 cells [2, 4] | IC50 [3] [µM] |
| --- | --- | --- | --- | --- | --- |
| CCN(CC)CCOc1ccc(Nc2ccc(C(F)(F)F)cc2[N+](=O)[O-])cc1 [Compound 17a, N-(4-(2-(Diethylamino)ethoxy)phenyl)-2-nitro-4-(trifluoromethyl)aniline] | approximately half | approximately 50% | approximately half | approximately 50% | 18.5 ± 1.5 |
| CN(C)CCOc1c(Br)cc(Nc2ccc(C(F)(F)F)cc2[N+](=O)[O-])cc1Br [Compound 18b, 3,5-Dibromo-4-(2-(dimethylamino)ethoxy)-N-(2-nitro-4-(trifluoromethyl)phenyl)aniline] | approximately half |  | approximately half |  | 11.9 ± 1 |
